Earlier results on one compound are cited in patent publication US9034628B2, “Induction of gene expression using a high concentration sugar mixture” (Danisco US Inc., priority 2002, dated 2015).

The subject of the series is main cellulase genes in Trichoderma, cbh1, cbh2, egl1, and egl2.

Consider `OC[C@H]1O[C@@H](O[C@H]2C(O)O[C@H](CO)[C@@H](O)[C@@H]2O)[C@H](O)[C@@H](O)[C@@H]1O` (some centres unmarked) [sophorose], for which, for the setting “carbon source available for growth”, the “Expression of the cellulase genes” value is recorded as “induced several thousand fold”. Further, the “expression level of the major cellobiohydrolase 1 (cbh1)” value (media containing inducing carbon source compared with glucose containing media (Ilmen et al. 1997)) was “up-regulated several thousand fold”.
